Test [1] deals with S. aureus ATCC 6538. Briefly: MIC broth microdilution. The test is classed as cell-based. Conditions: Staphylococcus aureus, ATCC6538; 19 h, 35 °C; read-out: MIC S. aureus ATCC 6538. The method in brief: (§1)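 Two-fold serial broth microdilution in Mueller-Hinton II broth, final inoculum adjusted to […]. Compounds dissolved in DMSO, final solvent at most 1%.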

Test [2] has as its system E. coli ATCC 25922. Description: MIC broth microdilution. The test is classed as cell-based. Conditions: Escherichia coli, ATCC25922; 19 h, 35 °C; read-out: MIC E. coli ATCC 25922. The essentials:
as §1

In test [3] the test system is S. aureus NCTC 4163. Description: MIC broth microdilution. The test is classed as cell-based. Conditions: 19 h, 35 °C. The method in brief: as §1
The subject of test [4] is S. epidermidis ATCC 35984. Description: MIC broth microdilution. The test is classed as cell-based. Conditions: Staphylococcus epidermidis, ATCC35984; 19 h, 35 °C; read-out: MIC S. epidermidis ATCC 35984. The method in brief:
as §1

The subject of test [5] is P. aeruginosa ATCC 15442. Briefly: MIC broth microdilution. The test is classed as cell-based. As to conditions: Pseudomonas aeruginosa, ATCC15442; 19 h, 35 °C; read-out: MIC P. aeruginosa ATCC 15442. The method in brief:
as §1

Test [6] deals with S. epidermidis ATCC 12228. Briefly: MIC broth microdilution. It counts as cell-based. Conditions: Staphylococcus epidermidis, ATCC12228; 19 h, 35 °C; read-out: MIC S. epidermidis ATCC 12228. The method in brief:
as §1

Test [7] concerns S. aureus ATCC 29213. Briefly: MIC broth microdilution. As to conditions: Staphylococcus aureus, ATCC29213; 19 h, 35 °C; read-out: MIC S. aureus ATCC 29213. It counts as cell-based. The essentials:
as §1

For test [8], the system named is S. aureus ATCC 25923. Description: MIC broth microdilution. As to conditions: Staphylococcus aureus, ATCC25923; 19 h, 35 °C; read-out: MIC S. aureus ATCC 25923. It counts as cell-based. The method in brief:
as §1

Test [9] has as its system HCT116 (colon cancer). Briefly: MTT assay, HCT116 cells. It counts as cell-based, human. The method in brief: (§2)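 Test compounds are added to plated cells (1 × 10^4 per well) for 72 h. Cell viability is calculated as the percentage of MTT reduction compared with cells given medium alone.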
Test [10] relates to HCT116 cells. Description: Cell cycle analysis by flow cytometry, HCT116. As to conditions: IC50, 24 h, compared to the control. The test is classed as cell-based, human. The essentials: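 Cells seeded at 1 × 10^5/well, adhered 24 h; attached and detached cells pooled, fixed overnight in 70% cold ethanol. Staining with RNase and propidium iodide (30 min, 37 °C, dark) preceded flow cytometry of sub-G1, G0/G1, S and G2/M fractions, in quadruplicate.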

Test [11] concerns A549 (lung cancer). Briefly: MTT assay, A549 cells. The test is classed as cell-based, human. The essentials:
as §2

The test system of test [12] is HaCaT (immortalized human keratinocytes). Briefly: MTT assay, HaCaT normal cells. The test is classed as cell-based. Conditions: Homo sapiens, HaCaT; MTT, 72 h, normal cells; read-out: IC50 HaCaT (Table 3). The method in brief:
as §2

The test system of test [13] is cancer cell lines. Briefly: MTT assay, summary over several cell lines. It counts as cell-based, human. As to conditions: Homo sapiens; range over two cell lines not given; read-out: IC50 range against two tested cell lines. On the procedure:
The human cell lines, such as A549 (lung cancer), MDA-MB-231 (breast cancer), MiaPaca-2 (pancreatic cancer), PC3 (metastatic prostate cancer), HCT-116 (colon carcinoma), and HaCaT (immortalized keratinocytes), were sourced from the American Type Culture Collection (ATCC) in Rockville, USA. Culturing conditions varied as follows: HCT116 cells were cultured in MEM (ThermoSci, Waltham, MA, USA), A549, MDA-MB-231, MiaPaca, HaCaT cells in DMEM High Glucose and PC3 cells were cultured in RPMI (Biowest SAS, Nuaillé, France). The growth medium consisted of 10% fetal bovine serum (FBS, Sigma-Aldrich, St. Louis, MO, USA), 20 mM HEPES (Biowest, Nuaillé, France), and antibiotics (100 U/mL of penicillin and 100 μg/mL of streptomycin) from Gibco, Grand Island, NY, USA. […] These compounds were added to 96-well plates containing study cells (1 × 10^4 cells per well) and incubated for 72 h. […] Cell absorbance results were incorporated into the formula for calculating the relative MTT level (%), enabling the assessment of cell viability following exposure to the test compounds. The cell viability percentage represents the MTT reduction in cells treated with the test compounds compared to the control sample, where only the medium was added to the cells.

Test [14] deals with PC3 (prostate cancer). Briefly: MTT assay, PC3 cells. The test is classed as cell-based, human. The essentials: as §2
[15] abbreviates: SI = IC50 for normal cell line (HaCaT)/IC50 cancer cell line.

The source of these data is article PMC11050599, “Novel Tetracyclic Azaphenothiazines with the Quinoline Ring as New Anticancer and Antibacterial Derivatives of Chlorpromazine” (International Journal of Molecular Sciences, 2024).

≈ marks a conversion by molar mass, not a printed value.

For the compound `CN1CCCCC1CCN1c2cc(Cl)ccc2Sc2cc3ccccc3nc21` (stereo not drawn) [Compound 11, 8-Chloro-6-(2-(1-methylpiperidin-2-yl)ethyl)-quino[3,2-b]benzo[1,4]thiazine], the minimum inhibitory concentration (MIC) in test [1] was 128 µg/mL (≈ 312 µM); in test [2], above 256 µg/mL; in test [3] (Staphylococcus aureus, NCTC4163, read-out: MIC S. aureus NCTC 4163), 8 µg/mL (≈ 19.5 µM); in [4] it was 256 µg/mL (≈ 624 µM); in test [5], above 256 µg/mL; in [6] it was 256 µg/mL (≈ 624 µM). Besides, the minimal inhibitory concentration (MIC) in test [7] and in test [8] was 128 µg/mL (≈ 312 µM) in each case. Moreover, the “MIC S. aureus NCTC 4163” value in [3] came out at 8 µg/mL (≈ 19.5 µM). For the same compound, the IC50 in test [9] (Homo sapiens, HCT-116, MTT, 72 h, read-out: IC50 HCT116) was 7.7 ± 1.2 µM; in test [11] (Homo sapiens, A549, MTT, 72 h, mean SD, read-out: IC50 A549), 16 ± 4.2 µM; in test [12] it was 12.7 ± 1.9 µM; in test [13] it was 16.1 to 16.7 µM; in [14] (Homo sapiens, PC-3, MTT, 72 h, read-out: IC50 PC3) it was 16.7 ± 1.8 µM. Also, the “SI HCT116” value in [9] (setting [15]) is listed as 1.6. Further, the “increase in the cell amount at the sub-G1 phase, HCT116” value in [10] was 2 fold. Further, the “SI A549” value in [11] (setting [15]) is 1. In test [14] (setting [15]), the “SI PC3” value was found to be 0.7.
